ChEMBL document CHEMBL3046097, “Synthesis and QSAR analysis of chalcone derivatives as nitric oxide inhibitory agent” (Med Chem Res, 2012)

Assays:
[1] = tested on: RAW264.7; assay: Anti-inflammatory activity in Mus musculus (mouse) RAW264.7 cells assessed as inhibition of IFN-gamma/LPS-induced NO production after 17 to 20 hr by Griess assay; format: functional, cell-based
[2] = tested on: RAW264.7; assay: Cytotoxicity against Mus musculus (mouse) RAW264.7 cells assessed as reduction in viable cells at 250 uM after 17 to 20 hr by MTT assay; format: cell-based; settings: raw264.7, 250 µM
[3] = tested on: RAW264.7; assay: Cytotoxicity against Mus musculus (mouse) RAW264.7 cells assessed as reduction in viable cells at 50 uM after 17 to 20 hr by MTT assay; format: cell-based; settings: raw264.7, 50 µM
[4] = tested on: RAW264.7; assay: Cytotoxicity against Mus musculus (mouse) RAW264.7 cells assessed as reduction in viable cells at 25 uM after 17 to 20 hr by MTT assay; format: cell-based; settings: raw264.7, 25 µM

IC50 ([1]; read-out: IC50)	IC50 ([1]; read-out: pIC50 (converted))	Compound	further results
46.8 µM	–	O=C(/C=C/c1ccc(O)cc1)c1cccs1	–
17 µM	17 µM	Cc1ccc(C(=O)/C=C/c2ccc(F)cc2)o1	–
19.3 µM	19.5 µM	O=C(/C=C/c1ccccc1O)c1ccco1	–
16.2 µM	–	O=C(/C=C/c1ccccc1O)c1cccs1	–
16 µM	15.8 µM	COc1ccc(OC)c(/C=C/C(=O)c2ccco2)c1	–
26 µM	–	COc1ccc(OC)c(/C=C/C(=O)c2ccc(Cl)s2)c1	–
17 µM	17 µM	Cc1ccc(C(=O)/C=C/c2ccccc2Cl)o1	–
21.3 µM	21.4 µM	Cc1ccc(C(=O)/C=C/c2ccco2)o1	Activity [2]: Non-toxic; Activity [3]: Non-toxic; Activity [4]: Non-toxic
13.8 µM	–	Cc1cc(C(=O)/C=C/c2ccccc2O)c(C)o1	–
7.96 µM	–	Cc1cc(C(=O)/C=C/c2cccc(O)c2)c(C)o1	–
13.5 µM	–	Cc1cc(C(=O)/C=C/c2ccc(O)cc2)c(C)o1	–
≥ 50 µM	–	Cc1cc(C(=O)/C=C/c2ccccc2OCC(=O)O)c(C)o1	–
29.9 µM	–	O=C(/C=C/c1ccccc1O)c1ccccn1	–
49.5 µM	–	O=C(/C=C/c1cccc(O)c1)c1ccccn1	–
31.7 µM	–	O=C(/C=C/c1ccccc1O)c1ccncc1	–
≥ 50 µM	–	O=C(/C=C/c1cccc(O)c1)c1ccncc1	–
≥ 50 µM	–	O=C(/C=C/c1ccc(O)cc1)c1ccncc1	–
38.7 µM	–	COc1ccc(OC)c(/C=C/C(=O)c2cccs2)c1	–
23.4 µM	–	O=C(/C=C/c1ccccc1O)c1ccc(Cl)s1	–
33.3 µM	–	O=C(/C=C/c1cccc(O)c1)c1ccc(Cl)s1	–

IC50 ([1]; read-out: IC50)	IC50 ([1]; read-out: pIC50 (converted))	Compound	further results
≥ 50 µM	–	O=C(/C=C/c1ccc(O)cc1)c1ccc(Cl)s1	–
24.8 µM	24.5 µM	O=C(/C=C/c1cccc(O)c1)c1ccco1	–
24.9 µM	25.1 µM	O=C(/C=C/c1ccc(O)cc1)c1ccco1	–
5.88 µM	6.92 µM	Cc1ccc(C(=O)/C=C/c2ccccc2O)o1	–
9.35 µM	9.33 µM	Cc1ccc(C(=O)/C=C/c2cccc(O)c2)o1	–
16.3 µM	16.2 µM	Cc1ccc(C(=O)/C=C/c2ccc(O)cc2)o1	–
2.51 µM	2.51 µM	COc1ccc(OC)c(/C=C/C(=O)c2ccc(C)o2)c1	–
≥ 50 µM	–	Cc1ccc(C(=O)/C=C/c2ccccc2OCC(=O)O)o1	–
14.5 µM	14.5 µM	Cc1ccc(C(=O)/C=C/c2ccc([N+](=O)[O-])cc2)o1	–
5.62 µM	5.62 µM	COc1cc(OC)c(/C=C/C(=O)c2ccc(C)o2)c(OC)c1	–
4.47 µM	4.47 µM	COc1ccc(/C=C/C(=O)c2ccc(C)o2)c(OC)c1OC	–
5.31 µM	12.3 µM	COc1ccc(/C=C/C(=O)c2ccc(C)o2)c(F)c1	–
2.26 µM	2.24 µM	COc1cccc(/C=C/C(=O)c2ccc(C)o2)c1OC	Activity [2]: Toxic; Activity [3]: Toxic; Activity [4]: Toxic
6.45 µM	6.46 µM	COc1cccc(OC)c1/C=C/C(=O)c1ccc(C)o1	–
12.9 µM	12.9 µM	Cc1ccc(C(=O)/C=C/c2ccccc2F)o1	–
7.76 µM	7.76 µM	Cc1ccc(C(=O)/C=C/c2cccc(Cl)c2)o1	–
11.5 µM	11.5 µM	Cc1ccc(C(=O)/C=C/c2ccc(Cl)cc2)o1	–
16.1 µM	16.2 µM	Cc1ccc(C(=O)/C=C/c2cccc(F)c2)o1	–
11.5 µM	–	COc1cc(O)cc(O)c1C(=O)/C=C/c1ccccc1 [CARDAMOMIN]	–

Compound	IC50 ([1]; read-out: IC50)	IC50 ([1]; read-out: pIC50 (converted))	further results
COC(=O)[C@@H](N)CCCNC(=N)N[N+](=O)[O-] [L-NAME]	23.2 µM	–	–
